Test results taken from patent US8354387B2, “Methods and compositions for delivering siRNA into mammalian cells” (Centre National de la Recherche Scientifique, priority 2004, dated 2013).

Key:
[1] = system: importin α; test: In vitro binding of carrier/DNA complexes to immobilized GST-importin α; settings: 1 hr at 25° C., agarose gel
Experimental: FIG. 2: The NLS of MPG is essential for nuclear translocation: A/ Purified GST-importin α and β were coupled onto GST Sepharose resin and incubated in batch with MPG/DNA or MPG^ΔNLS/DNA complexes for 1 hr, extensively washed and incubated with […] glutathione to elute the complexes. DNA was then extracted and analyzed by agarose gel electrophoresis (0.8%). […] B/ Delivery of pRL-SV40 plasmid: MPG/DNA (black boxes) or MPG^ΔNLS/DNA (grey boxes) complexes formed at a charge ratio of 5/1 with 100 ng pRL-SV40 plasmid encoding the reporter gene luciferase were overlaid onto synchronized or arrested (-FCS) human fibroblasts (Hs68). Luciferase activity was monitored 12 hrs and 24 hrs after release from synchrony, or after 24 hrs for arrested cells and 48 hrs for asynchronous cells. […]
Plasmids for the expression of recombinant GST-fusion protein importin α and importin β were kindly provided by B. Cullen. […] DNA was then extracted from the complexes with phenol-chloroform, followed by ethanol precipitation, and finally analyzed by agarose gel electrophoresis (0.8%).
MPG peptide is derived from the nuclear localization sequence of the SV 40 large T antigen and from the fusion peptide domain of HIV-1 gp41 protein (17). […] Then, both bound and unbound fractions were analyzed by agarose gel electrophoresis.

[2] = system: human fibroblasts (Hs68); test: pRL-SV40 plasmid transfection of synchronized or arrested cells (luciferase activity); type: cell-based; settings: for luciferase activity in serum-starved, arrested cells in comparison with dividing cells: 24 hrs after transfection; for transfection efficiency after 24 hrs, relative to expression after 48 hrs: synchronized Hs68, pRL-SV40, 24 hrs
Experimental: FIG. 2: The NLS of MPG is essential for nuclear translocation: A/ Purified GST-importin α and β were coupled onto GST Sepharose resin and incubated in batch with MPG/DNA or MPG^ΔNLS/DNA complexes for 1 hr, extensively washed and incubated with […] glutathione to elute the complexes. DNA was then extracted and analyzed by agarose gel electrophoresis (0.8%). […] B/ Delivery of pRL-SV40 plasmid: MPG/DNA (black boxes) or MPG^ΔNLS/DNA (grey boxes) complexes formed at a charge ratio of 5/1 with 100 ng pRL-SV40 plasmid encoding the reporter gene luciferase were overlaid onto synchronized or arrested (-FCS) human fibroblasts (Hs68). Luciferase activity was monitored 12 hrs and 24 hrs after release from synchrony, or after 24 hrs for arrested cells and 48 hrs for asynchronous cells. Control transfections were performed with Lipofectamine™ (white boxes) or naked plasmid (dashed boxes).
Hs68, Cos-7 and HeLa cell lines were cultured in Dulbecco's Modified Eagle's Medium supplemented with 2 mM glutamine, 1% antibiotics (streptomycin 10 000 μg/ml, penicillin, 10,000 IU/ml) and 10% (w/v) fetal calf serum (FCS) at 37° C. in a humidified atmosphere containing 5% CO2 as described previously (18). For MPG or MPG^ΔNLS-mediated gene delivery, peptide carrier/DNA complexes were formed in DMEM or PBS (500 μl of DMEM containing 100 ng of DNA complexed with MPG at a charge ratio 5:1) and incubated for 30 min at 37° C. Cells grown to 60% confluence were then overlaid with these preformed complexes. After 30 min incubation at 37° C., 1 ml of fresh DMEM supplemented with 10% fetal calf serum was added to the cells, without removing the overlay of carrier/DNA, and cells were returned to the incubator.
For cell cycle-dependent studies, Hs68 fibroblasts were synchronized by serum deprivation for 40 hrs, then restimulated to enter the cycle and grow into early G1 for 4 hrs by addition of fresh DMEM supplemented with 20% FCS, and incubated in the presence of MPG/DNA complexes as described above. Luciferase activity was monitored as described previously (19) and control transfection experiments were performed using Lipofectamine™. When transfected at 4° C., cells were incubated for 1 hour at 4° C. prior to transfection, then incubated with MPG/DNA complexes for another 2 hours at 4° C., extensively washed and finally returned to incubation at 37° C. in fresh medium supplemented with serum. When transfections were performed in the presence of bafilomycin A ([…]), cytochalasin B (50 μg/ml) or chloroquine (100 μM), cells were preincubated with these inhibitors of endocytosis for 1 hour prior to transfection.
In order to study the impact of the NLS of MPG on nuclear translocation of plasmids, transfection experiments were performed on synchronized or growth-arrested cells with either MPG or its NLS mutant. Cells were synchronized in G0 by serum starvation then released back into the cell cycle by addition of serum. 4 hours after release, cells were transfected with MPG/DNA or MPG^ΔNLS/DNA complexes and transgene expression was monitored 12 hours later, when most of the cells were in late G1, and […] later, in late G2 prior to mitosis. Data were normalized with luciferase activity obtained 48 hours after transfection, and compared with asynchronous cells. […] After 24 hrs, transfection efficiency reached 70%. In contrast, when transfection was performed with MPG^ΔNLS (SEQ ID NO:3), luciferase activity was negligible after 12 hrs (7%), and only reached 26% after 24 hrs. […]

Sequence	interaction of carrier/DNA complex with importin α [1]	luciferase activity in serum-starved, arrested cells in comparison with dividing cells [2]	luciferase expression after 12 hrs, relative to expression after 48 hrs ([2]; synchronized Hs68, pRL-SV40, 12 hrs)	transfection efficiency after 24 hrs, relative to expression after 48 hrs [2]
GALFLGFLGAAGSTMGAWSQPKSKRKV (carrier peptide) [MPG^ΔNLS, MPG variant with single mutation of the second lysine residue in the NLS motif to serine]	dramatically reduced	no transfection was observed	7%	26%
GALFLGFLGAAGSTMGAWSQPKKKRKV (carrier peptide) [MPG, bipartite amphipathic peptide derived from fusion peptide domain of HIV-1 gp41 and NLS of SV40 large T antigen]	significantly interacted specifically with importin α	50%		70%
